According to patent publication US20090186767A1, “Use of surfactants for mitigating damage to plants from pests” (Cleareso, LLC, priority 2008, published 2009):
“Also recorded” adds a separate entry of the source.

Experiments:
[1] = system: larvae of the root weevil, Diaprepes abbreviatus; experiment: Immersion of root weevil larvae in test solutions (Example 1); assay type: in vivo; conditions: for Judgement of toxicity to larvae: 0.1 to 5.0% treatments, test terminated at 24 hours; for Mortality of larvae with individual compounds and formulations: five larvae
Procedure: The criterion for toxicity with these larvae is the lack of nipping behavior and its consequent black residue from blood loss and the lack of spontaneous movement.
Experimental Design. Larvae and pupae were received from the Florida Dept. of Agriculture's rearing program in Gainesville, Fla. Larvae were shipped as 50-day larvae (larvae that will pupate in about 10 days). Both larvae and pupae were held at 27° C. in 12 hour cycles of light and dark in their containers as separate individuals until experimentation began.
In the testing, five larvae or pupae were removed from their rearing cups and placed in a 150 ml glass beaker. In testing the Soy Technologies Manufacturer's Base (SMTB), a 5% solution was mixed in either water or carbonated water by adding 10 ml of SMTB to a 250 ml beaker and then adding water or carbonated water to the 200 ml mark. The solutions were then immediately added to the beaker with the larvae or pupae to cover them. Controls with water or carbonated water alone were also included. There was a single tray of five larvae for each treatment at each time period and a five larvae control for each time period. Larvae were removed and placed on plastic weighing trays after 5, 10, 15, 20, 25, and 30 minutes. At the end of 30 minutes all organisms were assessed for mortality. Trays with larvae were left on the bench tip for 24 hours and then another mortality assessment was made.
Concentration Series. With the results from the time series above, larvae were held in different concentrations of STMB for 30 minutes. After 30 minutes, solutions were poured off and the trays wiped dry. Assessments were made at 24 or 48 hours with a few assessments at 72 hours dependent on effects. Treatments were: water or carbonated water as controls, and 0.1, 0.5, 1.0, 2.0, 3.0, 4.0 and 5.0% concentrations in either distilled water or carbonated water. Five larvae were used for each control and treatment. Pupae were not used in this assessment.

[2] = Solubility of test preparations in water (Example 1); assay type: physicochemical; conditions: concentration stated in the value
[3] = system: tomato root galling by M. javanica; conditions: in vivo; cited from earlier work
[4] = system: second stage juveniles of Meloidognye hapla; conditions: cited from earlier work; for Toxicity to nematodes: in vivo; for Toxicity to second stage juveniles: 24 hours at a concentration of 50 ppm
[5] = concentration 0.1 percent, 24 hours
[6] = concentration 1.0 percent, 24 hours
[7] = concentration 3.0 percent, 24 hours
[8] = concentration 5.0 percent, 24 hours
[9] = concentration 0.1 percent, 48 hours
[10] = concentration 0.1 percent, 72 hours
[11] = concentration 1.0 percent, 48 hours
[12] = concentration 1.0 percent, 72 hours
[13] = concentration 3.0 percent, 48 hours
[14] = concentration 3.0 percent, 72 hours
[15] = concentration 5.0 percent, 48 hours
[16] = concentration 5.0 percent, 72 hours

COC(=O)CCC(=O)OC [106-65-0, butanedioic acid, dimethyl ester]
Judgement of toxicity to larvae [1]: judged to be non-toxic
Mortality of larvae with individual compounds and formulations [1, 5]: 2
Mortality of larvae with individual compounds and formulations [1, 6]: 2
Mortality of larvae with individual compounds and formulations [1, 7]: 1
Mortality of larvae with individual compounds and formulations [1, 8]: 1
Solubility of the preparation ([2]; listed as Dimethyl succinate): The 3% and 5% concentrations were not soluble; also recorded: the 1.0% appears to be just soluble; also recorded: The 0.1% was soluble

COC(=O)CCCCC(=O)OC [627-93-0, Dimethyl hexanedioate]
Judgement of toxicity to larvae [1]: judged non-toxic
Mortality of larvae with individual compounds and formulations [1, 5]: 2
Mortality of larvae with individual compounds and formulations [1, 6]: 1
Mortality of larvae with individual compounds and formulations [1, 7]: 2
Mortality of larvae with individual compounds and formulations [1, 8]: 3
Solubility of the preparation ([2]; listed as Dimethyladipate): Preparations of 1.0, 3.0, and 5.0% concentration were not completely soluble; also recorded: The 0.1% preparation was soluble

COC(=O)CCCC(=O)OC [1119-40-0, pentanedioic acid, dimethyl ester]
Mortality of larvae with individual compounds and formulations [1, 9]: 3
Mortality of larvae with individual compounds and formulations [1, 10]: 3
Mortality of larvae with individual compounds and formulations [1, 11]: 1
Mortality of larvae with individual compounds and formulations [1, 12]: 2
Mortality of larvae with individual compounds and formulations [1, 13]: 0
Mortality of larvae with individual compounds and formulations [1, 14]: 0
Mortality of larvae with individual compounds and formulations [1, 15]: 1
Mortality of larvae with individual compounds and formulations [1, 16]: 2

CCCCCCCCC(=O)OC [Methyl perlargonate]
Concentration producing reduced galling of plants [3]: 0.8 microliters/liter

CCCCCCCC/C=C\CCCCCCCC(=O)O [Oleic acid]
Toxicity to nematodes [4]: relatively nontoxic

CCCCCCCCCC(=O)O [decanoic acid]
Toxicity to second stage juveniles [4]: killed all second stage juveniles

CCCCCCCC/C=C\CCCCCCCC(=O)[O-].[K+] [potassium oleate]
Toxicity to nematodes [4]: relatively nontoxic

CCCCCCCCCCC(=O)O [undecanoic acid]
Toxicity to second stage juveniles [4]: killed all second stage juveniles

Polyoxyethylene 10 tridecylether [24938-91-8]
Mortality of larvae with individual compounds and formulations [1, 5]: 0
Mortality of larvae with individual compounds and formulations [1, 9]: 0
Mortality of larvae with individual compounds and formulations [1, 10]: 0
Mortality of larvae with individual compounds and formulations [1, 6]: 2
Mortality of larvae with individual compounds and formulations [1, 11]: 2
Mortality of larvae with individual compounds and formulations [1, 12]: 2
Mortality of larvae with individual compounds and formulations [1, 7]: 0
Mortality of larvae with individual compounds and formulations [1, 13]: 0
Mortality of larvae with individual compounds and formulations [1, 14]: 0
Mortality of larvae with individual compounds and formulations [1, 8]: 0
Mortality of larvae with individual compounds and formulations [1, 15]: 3
Mortality of larvae with individual compounds and formulations [1, 16]: 3

glycol pelargonate
Concentration producing reduced galling of plants [3]: 6.4 microliters/liter
